Some results are limits rather than exact numbers.

KRAS G12C and cRAF (Ras-binding domain) interaction, sequence (P01116 other isoform, or with tags, fused parts or gaps G12C/C51S/C80L/C118S): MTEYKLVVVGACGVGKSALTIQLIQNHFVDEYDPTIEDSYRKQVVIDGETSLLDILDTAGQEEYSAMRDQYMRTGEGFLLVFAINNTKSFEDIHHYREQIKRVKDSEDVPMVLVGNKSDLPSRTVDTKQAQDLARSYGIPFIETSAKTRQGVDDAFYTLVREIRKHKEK

The target in the assay is KRAS G12C and cRAF (Ras-binding domain) interaction (Homo sapiens (Human), UniProt P01116, C118S/C51S/C80L/G12C). Description: Inhibition of KRAS G12C and cRAF binding (AlphaScreen). Particulars: additional exemplary compounds; KRAS G12C and cRAF binding; read-out: RAF1 RBD IC50. The procedure:
Compounds were diluted in 100% DMSO and each compound concentration was spotted at 200 nl/well onto low volume, white 384 well plates. […] Plates were incubated for 19-20 hours. A mixture of RBD and the AlphaScreen streptavidin donor and glutathione acceptor beads diluted in 25 mM Hepes, pH 7.4, 150 mM NaCl, 5 mM MgCl2, 0.01% TritonX-100 and 2% DMSO was then added at 10 ul/well and incubated for 60-90 minutes before the samples were read for emission at 570 nm after excitation of the donor beads at 680 nm. All incubations were performed at room temperature. […] IC50s were determined using nonlinear regression fit of [inhibitor]vs. response (4 parameters). […]
For `COC/C=C/S(=O)(=O)CCN(C)c1nc(OCC23CCCN2CCC3)nc2c1CCN(c1cccc3cccc(Cl)c13)C2`, the IC50 was in the range of 100 to 500 nM.

For `CN(C)C/C=C/S(=O)(=O)CCN(C)c1nc(OC[C@@H]2CCCN2C)nc2c(F)c(-c3cccc4cccc(Cl)c34)ncc12`, the IC50 fell in the range of 10 to 100 nM.

As to `CN(CCS(=O)(=O)/C=C/CN1CCC(F)(F)C1)c1nc(OC[C@@H]2CCCN2C)nc2c(F)c(-c3cccc4cccc(Cl)c34)ncc12`, the IC50 was over 500 nM.

For `CN1CCC[C@H]1COc1nc(N(C)[C@@H]2CCN(C(=O)/C=C/CN3CC(F)C3)C2)c2cnc(-c3cccc4cccc(Cl)c34)c(F)c2n1`, the IC50 is over 500 nM.

In the case of `C=CC(=O)N1CCC1CN(C)c1nc(OC[C@@]23CCCN2C[C@H](F)C3)nc2c(F)c(-c3cccc4cccc(Cl)c34)ncc12` (some centres unmarked), the IC50 was over 500 nM.

Turning to `C=CC(=O)N1CC(CN(C)c2nc(OC[C@]34CCCN3C[C@H](F)C4)nc3c(F)c(-c4cccc5cccc(Cl)c45)ncc23)C1`, the IC50 was over 500 nM.

`C=CC(=O)N1CC[C@@H](N(C)c2nc(OC[C@]34CCCN3C[C@H](F)C4)nc3c(F)c(-c4cccc5cccc(Cl)c45)ncc23)C1`: the IC50 is 100 to 500 nM.

In the case of `CN(C)C/C=C/S(=O)(=O)C1CCCN(c2nc(OCC34CCCN3CCC4)nc3c(F)c(-c4cccc5cccc(Cl)c45)ncc23)C1` (centres unmarked), the half-inhibitory concentration (IC50) fell in the range of 10 to 100 nM.

Consider `C=CC(=O)N1C[C@@H](N(C)c2nc(OCC34CCCN3CCC4)nc3c2CCN(c2cccc4cccc(Cl)c24)C3)C[C@@H]1CC#N`, for which the IC50 was over 500 nM.

Take `C=CC(=O)N1C[C@@H](N(C)c2nc(OC[C@@]34CCCN3C[C@H](F)C4)nc3c2CCN(c2cccc4cccc(Cl)c24)C3)C[C@@H]1CC#N`: the IC50 is over 500 nM.

Turning to `C=CC(=O)N1CCC(N(c2nc(OC[C@@]34CCCN3C[C@H](F)C4)nc3c(F)c(-c4cccc5cccc(Cl)c45)ncc23)C2CC2)C1` (some centres unmarked), the IC50 was over 500 nM.

As for `C=CC(=O)N1CCC1CN(C)c1nc(OC[C@@]23CCCN2C[C@H](F)C3)nc2c1CCN(c1cccc3cccc(Cl)c13)C2` (some centres unmarked), the IC50 was over 500 nM.

For `C=CC(=O)N1CC[C@@H]1CN(C)c1nc(OC[C@@]23CCCN2C[C@H](F)C3)nc2c(F)c(-c3cccc4cccc(Cl)c34)ncc12`, the IC50 is over 500 nM.

Consider `C=CC(=O)N1CC[C@H]1CN(C)c1nc(OC[C@@]23CCCN2C[C@H](F)C3)nc2c(F)c(-c3cccc4cccc(Cl)c34)ncc12`, for which the IC50 is over 500 nM.

For the compound `C=CC(=O)N(C)C[C@H]1CCN1c1nc(OC[C@@]23CCCN2C[C@H](F)C3)nc2c(F)c(-c3cccc4cccc(Cl)c34)ncc12`, the IC50 is over 500 nM.

`C=CC(=O)N(C)C[C@@H]1CCN1c1nc(OC[C@@]23CCCN2C[C@H](F)C3)nc2c(F)c(-c3cccc4cccc(Cl)c34)ncc12`: the IC50 is over 500 nM.

Take `C=CC(=O)N1CC(CN(C)c2nc(OC[C@]34CCCN3C[C@H](F)C4)nc3c2CCN(c2cccc4cccc(Cl)c24)C3)C1`: the half-inhibitory concentration (IC50) fell in the range of 100 to 500 nM.

Take `CN(C)C/C=C/S(=O)(=O)CCN(C)c1nc(OC[C@@H]2CCCN2C)nc2c(F)c(-c3cccc4ccc(F)c(Cl)c34)ncc12`: the 50% inhibitory concentration (IC50) was in the range of 10 to 100 nM.

For `C=CC(=O)N1C[C@H](N(C)c2nc(OC[C@@]34CCCN3C[C@H](F)C4)nc3c(F)c(-c4cccc5cccc(Cl)c45)ncc23)C[C@H]1CC#N`, the IC50 lay within 10 to 100 nM.

For `Cc1cc(/C=C/C(=O)N2CC[C@@H](N(C)c3nc(OCC45CCCN4CCC5)nc4c(F)c(-c5cccc6cccc(Cl)c56)ncc34)C2)on1`, the IC50 was over 500 nM.

With `CN(c1nc(OCC23CCCN2CCC3)nc2c(F)c(-c3cccc4cccc(Cl)c34)ncc12)[C@@H]1CCN(C(=O)/C=C/c2ncn(C)n2)C1`, the IC50 was over 500 nM.

With `CN(c1nc(OCC23CCCN2CCC3)nc2c(F)c(-c3cccc4cccc(Cl)c34)ncc12)[C@@H]1CCN(C(=O)/C=C/c2cn(C)nn2)C1`, the IC50 is over 500 nM.

Regarding `C=CC(=O)N1CC(CN(C)c2nc(OC[C@@]34CCCN3C[C@@H](F)C4)nc3c(F)c(-c4cccc5cccc(Cl)c45)ncc23)C1`, the 50% inhibitory concentration (IC50) was over 500 nM.

For `C=CC(=O)N1CC[C@@H](N(C)c2nc(OC[C@@]34CCCN3C[C@@H](F)C4)nc3c(F)c(-c4cccc5cccc(Cl)c45)ncc23)C1`, the 50% inhibitory concentration (IC50) is over 500 nM.

`C=CC(=O)N1CC[C@@H](N(C)c2nc(OC[C@@]34CCCN3C[C@@H](F)C4)nc3c2CCN(c2cccc4cccc(Cl)c24)C3)C1`: the IC50 is over 500 nM.

On to `N#CN1C2CCC1CN(c1nc(OC[C@@]34CCCN3C[C@H](F)C4)nc3c1CCN(c1cccc4cccc(Cl)c14)C3)C2`, for which the IC50 is over 500 nM.

As for `N#CN1C2CCC1CN(c1nc(OC[C@@]34CCCN3C[C@H](F)C4)nc3c1CCN(c1cccc4ccc(F)c(Cl)c14)C3)C2`, the IC50 is over 500 nM.

For `C=CC(=O)N(C)CC1CCN1c1nc(OC[C@@]23CCCN2C[C@H](F)C3)nc2c(F)c(-c3cccc4cccc(Cl)c34)ncc12` (some centres unmarked), the IC50 was over 500 nM.

Take `N#CN1CCC(N(c2nc(OC[C@@]34CCCN3C[C@H](F)C4)nc3c(F)c(-c4cccc5cccc(Cl)c45)ncc23)C2CC2)C1` (some centres unmarked): the IC50 is 10 to 100 nM.

Take `C=CC(=O)N1CC[C@@H](N(C)c2nc(OC[C@]34CCCN3C[C@H](F)C4)nc3c2CCN(c2cccc4cccc(Cl)c24)C3)C1`: the IC50 is over 500 nM.

For `C=CC(=O)N1C[C@H](N(C)c2nc(OC[C@@]34CCCN3C[C@H](F)C4)nc3c(F)c(-c4cccc5cccc(Cl)c45)ncc23)CC1C#N` (some centres unmarked), the IC50 lay within 10 to 100 nM.

As for `C=CC(=O)N1CC(CN(C)c2nc(OC[C@@]34CCCN3C[C@@H](F)C4)nc3c2CCN(c2cccc4cccc(Cl)c24)C3)C1`, the half-inhibitory concentration (IC50) was over 500 nM.

For the compound `C=CC(=O)N1C2CCC1CN(c1nc(OCC34CCCN3CCC4)nc3c1CCN(c1cccc4cccc(Cl)c14)C3)C2`, the IC50 was over 500 nM.

Consider `C=CC(=O)N1C[C@H]2C[C@@H]1CN2c1nc(OCC23CCCN2CCC3)nc2c1CCN(c1cccc3cccc(Cl)c13)C2`, for which the IC50 is over 500 nM.

In the case of `C=CC(=O)N1C[C@@H]2C[C@H]1CN2c1nc(OCC23CCCN2CCC3)nc2c1CCN(c1cccc3cccc(Cl)c13)C2`, the IC50 was over 500 nM.

Turning to `C=CC(=O)N1C[C@H](N(C)c2nc(OCC34CCCN3CCC4)nc3c2CCN(c2cccc4cccc(Cl)c24)C3)C[C@H]1CC#N`, the IC50 is over 500 nM.

For `C=CC(=O)N1CC[C@@H]1CN(C)c1nc(OC[C@@]23CCCN2C[C@H](F)C3)nc2c1CCN(c1cccc3cccc(Cl)c13)C2`, the IC50 was over 500 nM.

For `CN(c1nc(OCC23CCCN2CCC3)nc2c(F)c(-c3cccc4cccc(Cl)c34)ncc12)[C@@H]1CCN(C(=O)/C=C/c2ncccn2)C1`, the IC50 is over 500 nM.

For `C=CC(=O)N1CC[C@@H](Nc2nc(OC[C@@]34CCCN3C[C@H](F)C4)nc3c(F)c(-c4cccc5cccc(Cl)c45)ncc23)C1`, the half-inhibitory concentration (IC50) was over 500 nM.

Consider `C=CC(=O)N1CC[C@H](Nc2nc(OC[C@@]34CCCN3C[C@H](F)C4)nc3c(F)c(-c4cccc5cccc(Cl)c45)ncc23)C1`, for which the IC50 is over 500 nM.

On to `C=CC(=O)N1CC(CNc2nc(OC[C@@]34CCCN3C[C@H](F)C4)nc3c(F)c(-c4cccc5cccc(Cl)c45)ncc23)C1`, for which the IC50 lay within 100 to 500 nM.

For `C=CC(=O)N1CC[C@H](Nc2nc(OC[C@@]34CCCN3C[C@H](F)C4)nc3c2CCN(c2cccc4cccc(Cl)c24)C3)C1`, the IC50 was over 500 nM.

With `CN(c1nc(OC[C@@]23CCCN2C[C@H](F)C3)nc2c(F)c(-c3cccc4cccc(Cl)c34)ncc12)[C@@H]1CCN(C(=O)/C=C/c2ncn(C)n2)C1`, the IC50 is over 500 nM.

Regarding `CN(c1nc(OCC23CCCN2CCC3)nc2c(F)c(-c3cccc4cccc(Cl)c34)ncc12)[C@@H]1CCN(C(=O)/C=C/c2ccncn2)C1`, the IC50 was over 500 nM.

For the origin of these results see patent publication US20250019387A1 (Frontier Medicines Corporation, priority 0001, published 2025).
